{"source": "patent US20250123282A1", "about": "“METHODS FOR EVALUATION AND TREATMENT OF TYROSINE KINASE INHIBITOR (TKI)-RESISTANT ACUTE MYELOID LEUKEMIA” (LOMA LINDA UNIVERSITY, priority 2021, published 2025)", "assay_type_in_all_cases": "cell-based, human", "key": {"[1]": {"system": "MV4-11 cells", "test": "Phase-bright imaging of re-growth of TKI-treated MV4-11", "text": "To follow the cell fate of TKI-treated MV4-11 and MOLM-14, culturing of blasts were continued by performing medium change every 2-3 days. […] The BAD protein is a pro-apoptotic member of the BCL-2 gene family, which is involved in initiating apoptosis. Dephosphorylated BAD is pro-apoptotic by binding BCL-2 and inactivating BCL-2, while phosphorylated BAD (pBAD) is anti-apoptotic by leaving BCL-2 free to inhibit BAX-triggered apoptosis.\nSmall Molecular Inhibitors and in vitro & ex vivo Treatment. […] The dose of 80 nM for the four TKIs was selected based on their dose-dependent cytotoxicity in previous reports. […] Both GILT and QUIZ were reported to start to suppress the tumorigenic clustering and c-Kit at the dose of 80 nM. […] The combination of 5 μM 5-Azacitidine (AZA) and 80 nM 1α,25-Dihydroxyvitamin D3 (VD3) was added to the experimental group similar to the previous report. As combination agents to treat blasts in vitro, one dose of 80 nM GILT with one dose of either 100 nM Venetoclax (BCL2 inhibitor), 10 μM (R)-Lisofylline (STAT4 inhibitor), 100 nM AZD1208 (PIM inhibitor), 500 nM PF-06826647 (TYK2 inhibitor), or 500 nM AT9283 (JAK2/3 inhibitor) were added to 1 ml of 1×10^6 cells for each experimental group in 24 well plates. Three days after the one dose treatment, cells were then collected for either analyses by FACS and qPCR, or re-plated into 24 well plates for continued culture. At different time points, re-plated cells were collected for analyses by FACS and qPCR. Medium change was performed every 2-3 days.\nImaging Acquisition. Phase-bright images were taken using an Olympus 1X71 inverted microscope and were processed using an Olympus cellSens Dimension 1.15 Imaging Software."}, "[2]": {"system": "primary AML BMMNC", "test": "Ex vivo combination treatment of primary AML BMMNC (FACS, imaging, qPCR)", "settings": "80 nM GILT", "protocol": "(§1) Whether targeting the MIF-CXCR2 signaling pathway would effectively treat AML blasts were investigated. First, the combination of GILT with ribosomal protein S19 (RPS19) on MV4-11 blasts was tested in vitro. RPS19, a MIF inhibitor, has been reported to suppress cisplatin-activated MIF-CD74-NFκB signaling pathway in acute kidney injury. […] The combination of 80 nM GILT with 50 uM SB225002, a CXCR2-inhibitor (CXCR2-I) on MV4-11 blasts in vitro were examined. […] The anti-leukemic effect of combining GILT with CXCR2-I on primary BMMNC ex vivo were examined. […] There may be alternative cytokine pathways compensating for the defect of MIF-CXCR2 pathways.\nThe combination of 80 nM GILT and 50 uM BAY11-7821 (a NFκB-I) was tested as a novel therapeutic approach for AML.\nNext, the anti-leukemic effect of the combination was examined on primary BMMNC from refractory AML patients (Patient #7, Table 4).\nHuman Samples. AML bone marrow (BM) mononuclear cells (BMMNC) (Patients #1-7, Table 4) were obtained from the City of Hope National Medical Center (COHNMC). All donor patients signed an informed consent form. Sample acquisition was approved by the Institutional Review Boards at the LLUMC and the COHNMC in accordance with an assurance filed with and approved by the Department of Health and Human Services, and it met all requirements of the Declaration of Helsinki.\n(§2) For MIF in vitro experiments, different doses of MIF were added to 1 ml of 1×10^6 MV4-11 cells or RAW264.7 cells for each experimental group in 24-well plates. Two days after the one dose treatment, cells were then collected for either analyses by FACS and qPCR. As combination agents to treat blasts in vitro or ex vivo, one dose of 80 nM GILT with one dose of different inhibitors were added to 1 ml of 1×10^6 MV4-11 cells or 1 ml of 0.5-1×10^6 primary AML BMMNC for each experimental group in 24-well plates. Dose-dependent experiments of CXCR2 inhibitor and NFκB inhibitor with or without 80 nM GILT were performed. […] Three days after the one dose treatment, cells were then collected for either analyses by FACS and qPCR.\n(§3) Flow Cytometry (FACS). Cells were harvested and examined for the expression of cell surface biomarkers (CD) and intracellular proteins by multichromatic FACS as previously described. About 1×10^4˜10^6 cells in 100 μl FACS buffer (PBS containing 1% FBS and 0.05% sodium azide) were stained with various fluorescence-conjugated antibodies specific for the desired cell surface proteins at 4° C. for 30 min. The surface-stained cells were then fixed and permeabilized using the appropriate reagents (e.g. the BD Pharmingen Cytofix/Cytoperm buffer) and stained with different fluorescence-conjugated antibodies specific for the desired intracellular proteins at 4° C. for 2 hours in the permeabilizing buffer (e.g. the BD Perm/Wash buffer). Concentrations of the Abs were used per the manufacturers' recommendations. Finally, the cells were washed twice in the permeabilizing buffer and twice in the FACS buffer before being analyzed on the BD FACSAria II. Data was analyzed using the FlowJo software (Tree Star Inc., Ashland, OR).\nRNA Isolation and Real-Time Polymerase Chain Reaction (qPCR) analysis. MV4-11 and MOLM-14 cells were cultured with the presence of TKI drugs for 72 hours or re-plated 28 days after the treatment of TKI drugs. Cells were isolated for RNA isolation and qPCR analysis as previously described. Total RNA was isolated using the RNeasy Micro Kit (Qiagen) according to the manufacturer's instruction. First-strand cDNA was synthesized using the SuperScript III Reverse Transcriptase (Invitrogen; Life Technologies). With an Applied Biosystems 7900HT Real-Time PCR machine, qPCR was performed and analyzed using known primers for the specific markers. The PCR conditions were 10 minutes at 95° C. followed by 40 cycles of 10 seconds at 95° C. and 15 seconds at 60° C. The relative expression level of a gene was determined using the ΔΔCt method and normalized to GAPDH."}, "[3]": {"system": "MV4-11 blasts", "test": "GILT combined with MIF inhibitor or CXCR2 inhibitor on MV4-11 blasts in vitro (FACS)", "settings": "80 nM GILT, 50 uM SB225002, 3 days", "protocol": "as §1, §2, §3"}, "[4]": {"settings": "newly diagnosed AML, Patient #5, 50 uM BAY11-7821"}, "[5]": {"settings": "primary BMMNC ex vivo (Patient #2 and #3), 50 uM CXCR2-I"}}}
{"smiles": "CC(C)(C)c1cc(NC(=O)Nc2ccc(-c3cn4c(n3)sc3cc(OCCN5CCOCC5)ccc34)cc2)no1", "note": "[QUIZ, Quizartinib]", "values": [{"measurement": "re-growth / tumorigenic clusters of MV4-11", "setting": "[1]; 10 days after TKI treatment", "value": "few newly formed tumorigenic clusters"}, {"measurement": "re-growth / tumorigenic clusters of MV4-11", "setting": "[1]; 20 days after TKI treatment", "value": "many tumorigenic clusters"}, {"measurement": "re-growth / relapse of MV4-11", "setting": "[1]; 28 days after TKI treatment", "value": "grew confluent without tumorigenic clusters"}]}
{"smiles": "CCc1nc(C(N)=O)c(Nc2ccc(N3CCC(N4CCN(C)CC4)CC3)c(OC)c2)nc1NC1CCOCC1", "note": "[GILT, Gilteritinib]", "values": [{"measurement": "percentage of Ki67+CD33+ proliferating blasts", "setting": "[2]; [4]", "value": 73.3, "unit": "%"}, {"measurement": "percentage of viable CD33+CD13+ primary blasts", "setting": "[2]; [4]", "value": 35.8, "unit": "%"}, {"measurement": "percentage of Ki67+CD13+ blasts", "setting": "[2]; [5]", "value": 60, "unit": "%"}, {"measurement": "percentage of viable CD33+CD13+ primary blasts", "setting": "[2]; [5]", "value": 7.14, "unit": "%"}, {"measurement": "percentage of viable CD44+ MV4-11 blasts", "setting": "[3]", "value": 12.2, "unit": "%"}, {"measurement": "percentage of Ki67+CD44+ blasts", "setting": "[3]; MV4-11", "value": 12.2, "unit": "%"}]}
